Results taken from paper PMC9127186, “Molecular Basis Underlying Hepatobiliary and Renal Excretion of Phenolic Acids of Salvia miltiorrhiza Roots (Danshen)” (Frontiers in Pharmacology, 2022).

Columns and labels:
OATP1B3 = molecular target: T1, OATP1B3 (Homo sapiens, UniProt Q9NPD5); experiment: Cellular transport assay, HEK-293 cells expressing human OATP1B3; settings: for TransportTC/TransportMC ratio (net transport ratio): 10 min; for K m / V max: 5 min incubation, concentrations in Table 1
T1 sequence (Q9NPD5 1-702): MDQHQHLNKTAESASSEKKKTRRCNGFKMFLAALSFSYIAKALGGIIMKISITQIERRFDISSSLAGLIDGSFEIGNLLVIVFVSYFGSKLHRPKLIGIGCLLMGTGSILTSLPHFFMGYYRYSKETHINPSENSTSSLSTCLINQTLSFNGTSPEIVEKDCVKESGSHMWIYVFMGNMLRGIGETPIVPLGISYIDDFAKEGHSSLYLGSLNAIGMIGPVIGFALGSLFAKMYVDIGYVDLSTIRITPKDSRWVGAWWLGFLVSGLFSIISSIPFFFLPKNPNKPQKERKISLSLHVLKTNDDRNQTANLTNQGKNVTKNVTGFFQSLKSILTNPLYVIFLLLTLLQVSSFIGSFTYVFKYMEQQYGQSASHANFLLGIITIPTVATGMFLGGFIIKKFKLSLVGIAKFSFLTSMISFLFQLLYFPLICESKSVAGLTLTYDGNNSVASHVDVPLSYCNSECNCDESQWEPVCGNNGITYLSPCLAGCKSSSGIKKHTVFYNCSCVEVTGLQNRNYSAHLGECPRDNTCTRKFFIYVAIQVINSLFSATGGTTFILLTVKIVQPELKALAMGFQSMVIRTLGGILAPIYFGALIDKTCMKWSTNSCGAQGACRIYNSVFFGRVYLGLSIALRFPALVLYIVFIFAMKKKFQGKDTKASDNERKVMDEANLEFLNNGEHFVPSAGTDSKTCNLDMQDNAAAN
Description: Briefly, HEK-293 cells were grown, at 37°C and 5% CO2, in Dulbecco’s modified Eagle’s medium, which was fortified with 10% fetal bovine serum, 1% minimal essential medium nonessential amino acids, and 1% antibiotic-antimycotic solution. A day before transfection, cells were seeded onto 24-well poly-D-lysine-coated plates at a density of 2 × 10^5 cells per well. After incubation at 37°C and 5% CO2 for 24 h, the expression plasmid and the empty vector were introduced separately into the HEK293 cells with Lipofectamine 2000 transfection reagent (Invitrogen, Carlsbad, CA, United States), according to the manufacturer’s protocol to yield transporter-expressing cells and mock cells, respectively.
Transport studies were performed 48 h after the transfection. […] Differential uptake between the transfected cells and mock cells was defined as net transport ratio (TransportTC/TransportMC ratio), where TransportTC and TransportMC are the transport rates of a test Danshen compound into transfected and mock cells, respectively. […] The determination was performed under linear uptake conditions by incubation for 5 min. Table 1 summarizes the final concentrations of the test Danshen compounds for different transporters. All the incubation samples were analyzed by liquid chromatography/mass spectrometry.
GraFit software (version 5.0; Erithacus Software Ltd, Surrey, United Kingdom) was used to determine the K m and V max values by nonlinear regression analysis of initial transport rates as a function of substrate concentration.

human BCRP = molecular target: T2, human BCRP (Homo sapiens, UniProt Q9UNQ0); experiment: Vesicular transport assay, inside-out membrane vesicles expressing human BCRP; settings: 10 min
T2 sequence (Q9UNQ0 1-655): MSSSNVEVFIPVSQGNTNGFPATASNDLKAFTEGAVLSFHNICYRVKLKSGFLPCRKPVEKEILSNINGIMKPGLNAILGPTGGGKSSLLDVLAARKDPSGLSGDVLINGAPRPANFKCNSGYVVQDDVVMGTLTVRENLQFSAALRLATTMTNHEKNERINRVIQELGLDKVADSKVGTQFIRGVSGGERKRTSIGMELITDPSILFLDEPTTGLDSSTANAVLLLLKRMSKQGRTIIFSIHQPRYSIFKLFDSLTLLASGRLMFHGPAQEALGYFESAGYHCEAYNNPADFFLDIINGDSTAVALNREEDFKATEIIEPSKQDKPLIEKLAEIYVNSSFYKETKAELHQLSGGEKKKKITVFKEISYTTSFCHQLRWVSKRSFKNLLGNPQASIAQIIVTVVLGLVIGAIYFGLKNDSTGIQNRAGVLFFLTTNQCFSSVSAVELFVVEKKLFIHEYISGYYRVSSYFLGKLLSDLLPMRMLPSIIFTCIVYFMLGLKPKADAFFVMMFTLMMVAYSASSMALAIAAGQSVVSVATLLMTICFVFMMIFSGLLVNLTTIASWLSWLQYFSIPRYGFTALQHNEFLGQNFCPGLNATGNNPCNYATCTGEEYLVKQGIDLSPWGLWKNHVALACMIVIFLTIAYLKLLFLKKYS
Description: (§1) Inside-out membrane vesicles (5 mg protein/mL), prepared from insect cells expressing human multidrug resistance-associated protein (MRP) 2, MRP3, MRP4, breast cancer resistance protein (BCRP), bile salt export pump (BSEP), and multidrug resistance protein (MDR) one and rat Mrp2, Mrp4, Bcrp, and Bsep, and vesicles (5 mg protein/mL; prepared from the insect cells expressing no ABC transporter; serving as negative control) were obtained from Genomembrane (Kanazawa, Japan).
(§2) The test Danshen compounds at 100 µM final concentration were separately incubated with the membrane vesicles for 10 min. Buffer C (50 mM MOPS-tris, 70 mM KCl, 7.5 mM MgCl2, pH 7.0) was used for preincubation and incubation, while buffer D (40 mM MOPS-tris, 70 mM KCl, pH 7.0) was used for vesicle washing. The transport rate (pmol/mg protein/min) of the test Danshen compound was calculated using Equation (2): Transport=(CV×VV)/T/WV (2) where C V, V V, T, and W V represent concentration of the compound in vesicular lysates supernatant (μM), volume of the lysates (μL), incubation time (10 min), and amount of vesicle protein amount per well (0.05 mg), respectively. Differential transport of the test Danshen compound between ATP-containing vesicles and AMP-containing vesicles was defined as net transport ratio (TransportATP/TransportAMP ratio). […] All the incubation samples were analyzed by liquid chromatography/mass spectrometry.

rat Mrp2 = rat Mrp2 (Rattus norvegicus, UniProt Q63120); experiment: Vesicular transport assay, inside-out membrane vesicles expressing rat Mrp2; settings: for TransportATP/TransportAMP ratio (net transport ratio): 10 min
Description: as §1, §2

[1] = Danshen phenolic acid at 100 μM final concentration, human OATP1B3-transfected vs mock cells
[2] = human hepatic sinusoidal uptake OATP1B3
[3] = Danshen phenolic acid at 100 μM final concentration, human BCRP vesicles
[4] = Danshen phenolic acid at 100 μM final concentration, rat Mrp2 vesicles
[5] = human, HEK-293 cells expressing human OATP1B3 (vs mock cells)

Chain of rat Mrp2 (Q63120 whole entry): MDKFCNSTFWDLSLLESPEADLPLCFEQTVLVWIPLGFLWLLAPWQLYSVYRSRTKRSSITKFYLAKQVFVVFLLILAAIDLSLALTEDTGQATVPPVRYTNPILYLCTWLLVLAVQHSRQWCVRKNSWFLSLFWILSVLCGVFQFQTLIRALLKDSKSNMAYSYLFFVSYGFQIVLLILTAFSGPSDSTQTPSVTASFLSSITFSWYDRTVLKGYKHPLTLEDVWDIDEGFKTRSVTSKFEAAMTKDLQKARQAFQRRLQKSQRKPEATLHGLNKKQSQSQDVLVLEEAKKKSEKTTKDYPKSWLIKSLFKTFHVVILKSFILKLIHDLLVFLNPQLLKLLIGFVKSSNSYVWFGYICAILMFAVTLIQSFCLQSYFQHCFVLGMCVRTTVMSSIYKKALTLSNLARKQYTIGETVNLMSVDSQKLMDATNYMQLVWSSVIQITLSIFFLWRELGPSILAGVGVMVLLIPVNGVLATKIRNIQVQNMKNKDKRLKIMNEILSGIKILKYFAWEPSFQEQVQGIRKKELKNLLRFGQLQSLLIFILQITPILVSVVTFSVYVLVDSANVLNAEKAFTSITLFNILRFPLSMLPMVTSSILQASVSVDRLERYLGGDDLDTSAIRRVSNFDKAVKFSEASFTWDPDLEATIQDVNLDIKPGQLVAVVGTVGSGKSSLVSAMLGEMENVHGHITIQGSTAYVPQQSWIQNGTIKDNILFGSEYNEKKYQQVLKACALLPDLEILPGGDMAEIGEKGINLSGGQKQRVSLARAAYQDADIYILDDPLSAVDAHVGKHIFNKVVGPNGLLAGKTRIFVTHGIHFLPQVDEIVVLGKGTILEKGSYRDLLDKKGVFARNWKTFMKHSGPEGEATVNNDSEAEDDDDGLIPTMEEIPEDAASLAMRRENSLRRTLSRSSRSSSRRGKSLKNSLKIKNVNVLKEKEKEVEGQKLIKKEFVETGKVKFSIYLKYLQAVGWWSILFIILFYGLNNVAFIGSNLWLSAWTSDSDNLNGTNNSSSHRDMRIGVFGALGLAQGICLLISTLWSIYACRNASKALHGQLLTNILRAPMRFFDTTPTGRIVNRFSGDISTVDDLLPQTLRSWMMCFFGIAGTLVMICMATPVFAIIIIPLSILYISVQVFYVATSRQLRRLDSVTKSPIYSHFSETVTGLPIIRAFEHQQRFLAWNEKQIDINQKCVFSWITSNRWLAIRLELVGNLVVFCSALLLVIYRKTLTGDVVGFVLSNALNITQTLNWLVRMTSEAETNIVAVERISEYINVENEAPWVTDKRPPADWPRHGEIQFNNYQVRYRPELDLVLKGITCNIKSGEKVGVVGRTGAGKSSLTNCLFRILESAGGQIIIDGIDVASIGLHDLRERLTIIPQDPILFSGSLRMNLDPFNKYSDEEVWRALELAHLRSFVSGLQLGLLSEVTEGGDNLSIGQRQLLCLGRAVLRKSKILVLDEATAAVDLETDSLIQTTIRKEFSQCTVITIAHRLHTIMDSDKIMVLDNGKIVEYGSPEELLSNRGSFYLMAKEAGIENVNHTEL

Row | K m (OATP1B3; [2]) [µM] | V max (OATP1B3; [2]) [pmol/min/mg protein] | microsomal CLint (OATP1B3; [5]) [µL/min/mg] | Compound | substrate of human OATP1B3 (OATP1B3) | TransportTC/TransportMC ratio (net transport ratio) (OATP1B3; [1]) | CLint (OATP1B3; [2]) [μL/min/mg protein] | TransportATP/TransportAMP ratio (net transport ratio) (human BCRP; [3]) | substrate of rat Mrp2 (rat Mrp2) | TransportATP/TransportAMP ratio (net transport ratio) (rat Mrp2; [4]) | TransportTC/TransportMC ratio (net transport ratio) (OATP1B3; human, 100 μM) | microsomal CLint (OATP1B3; human, other cell line) [µL/min/mg] | TransportATP/TransportAMP ratio (net transport ratio) (human BCRP; human, not told, 100 μM, pH 7) | TransportATP/TransportAMP ratio (net transport ratio) (rat Mrp2; rat, 100 μM, pH 7)
1 | 570 ± 79 | 98.5 ± 4.8 | 0.17 | O=C(O)Cc1c(/C=C/C(=O)O[C@H](Cc2ccc(O)c(O)c2)C(=O)O)ccc(O)c1O [Salvianolic acid D, salvianolic acid D] | substrates | 5.83 ± 0.49 | – | 2.22 ± 0.61 | – | 2.21 ± 0.89 | – | – | – | –
2 | 182 ± 26 | 9.59 ± 0.51 | 0.05 | O=C(/C=C/c1ccc(O)c2c1[C@H](C(=O)O)[C@@H](c1ccc(O)c(O)c1)O2)O[C@H](Cc1ccc(O)c(O)c1)C(=O)O [Lithospermic acid, lithospermic acid] | substrates | 8.02 ± 0.52 | – | 1.12 ± 0.31 | – | 1.83 ± 0.45 | – | – | – | –
3 | – | – | – | O=C(/C=C/c1ccc(O)c(O)c1)O[C@H](Cc1ccc(O)c(O)c1)C(=O)O [Rosmarinic acid, rosmarinic acid] | substrates | – | – | – | – | – | 7.28 ± 0.58 | 0.09 | 1.12 ± 0.55 | 1.24 ± 0.45
4 | – | – | – | O=C(/C=C/c1ccc(O)c(O)c1/C=C/c1ccc(O)c(O)c1)O[C@H](Cc1ccc(O)c(O)c1)C(=O)O [Salvianolic acid A, salvianolic acid A] | not a substrate | – | – | – | – | – | 1.02 ± 0.31 | – | 1.12 ± 0.35 | 1.80 ± 0.81
5 | – | – | – | O=C(O)c1ccc(O)c(O)c1 [Protocatechuic acid, protocatechuic acid] | – | 0.75 ± 0.09 | – | 1.04 ± 0.19 | – | 0.74 ± 0.13 | – | – | – | –

Row | Compound | K m (OATP1B3; [2]) [µM] | V max (OATP1B3; [2]) [pmol/min/mg protein] | microsomal CLint (OATP1B3; [5]) [µL/min/mg] | substrate of human OATP1B3 (OATP1B3) | TransportTC/TransportMC ratio (net transport ratio) (OATP1B3; [1]) | CLint (OATP1B3; [2]) [μL/min/mg protein] | TransportATP/TransportAMP ratio (net transport ratio) (human BCRP; [3]) | substrate of rat Mrp2 (rat Mrp2) | TransportATP/TransportAMP ratio (net transport ratio) (rat Mrp2; [4]) | TransportTC/TransportMC ratio (net transport ratio) (OATP1B3; human, 100 μM) | microsomal CLint (OATP1B3; human, other cell line) [µL/min/mg] | TransportATP/TransportAMP ratio (net transport ratio) (human BCRP; human, not told, 100 μM, pH 7) | TransportATP/TransportAMP ratio (net transport ratio) (rat Mrp2; rat, 100 μM, pH 7)
6 | salvianolic acid B | 13.0 ± 1.6 | 11.0 ± 0.4 | – | substrates | 16.2 ± 0.6 | 0.85 | 1.54 ± 0.78 | substrate | 4.43 ± 1.12 | – | – | – | –
